Like-named read-outs stand apart in the source and are kept apart here.
Experiments:
[1] = target: urease (Canavalia ensiformis, UniProt P07374); assay: biochemical; format: biochemical; conditions: for folds more urease inhibition than standard Thiourea: relative to Thiourea IC50
Protocol: The activity performed was an improved procedure of the Berthelot assay. […] For 5 min, the mixture was incubated at 37 °C. Each well in a 96-well plate received 40 µL of urea stock solution (20 mM); incubated for 10 min at 37 °C. Afterwards, 115 µL phenol hypochlorite (45 µL phenol + 70 µL alkali) per well was added. Furthermore, all the contents were incubated for 10 min at 37 °C. Absorbance at 625 nm was measured. Using the provided formula, the % of enzyme-inhibition and IC-50 values were computed Inhibition (%age) = [Control − test/100(control)] where Control = [Total enzyme activity minus inhibitor]. The test is the test compounds’ activity

[2] = system: Bacillus pumilus; assay: Antibacterial agar-well diffusion; format: cell-based; conditions: sample 100 mg/5 mL in DMSO; ceftriaxone sodium 20 mg/10 mL; 37 °C, 24 h; 6 mm wells
Protocol: (§1) After sterilizing the Mueller Hinton agar medium on plates in an autoclave and allowing it to cool to roughly 45 °C, a 100 µL standard inoculum was aseptically mixed, chilled till 37 °C, and 6 mm wells were formed in the inoculated plates. The volume of 100 μL (100 mg/5 mL in DMSO), ceftriaxone sodium (20 mg/10 mL in DMSO) as a positive control, and pure DMSO as a negative control; 30 μL of the sample solution was incorporated into these wells. These primed plates were incubated at 37 °C for 24 h prior to record inhibitory zones in millimeters.

[3] = system: Pseudomonas aeruginosa; assay: Antibacterial agar-well diffusion; format: cell-based; conditions: sample 100 mg/5 mL in DMSO; ceftriaxone sodium 20 mg/10 mL; 37 °C, 24 h; 6 mm wells
Protocol: as §1

[4] = system: Escherichia coli; assay: Antibacterial agar-well diffusion; format: cell-based; conditions: sample 100 mg/5 mL in DMSO; ceftriaxone sodium 20 mg/10 mL; 37 °C, 24 h; 6 mm wells
Protocol: as §1

[5] = system: Staphylococcus aureus; assay: Antibacterial agar-well diffusion; format: cell-based; conditions: sample 100 mg/5 mL in DMSO; ceftriaxone sodium 20 mg/10 mL; 37 °C, 24 h; 6 mm wells
Protocol: as §1

[6] = system: thoracic aorta segments; assay: Inhibition of phenylephrine-induced contraction on isolated aorta rings; parameters: species or system male Wistar rats; conditions: compounds 10^−4 M in organ bath, phenylephrine 10^−6 M, n = 5; for inhibition at 100 µM: Rattus norvegicus, read-out: %ge inh. of Phenylephrine Cont. (±SEM)
Protocol: (§2) Cervical disruption was used to eliminate male Wistar rats weighing 200 g and 300 g. The thoracic aorta segments (3 mm to 5 mm) were slightly pressed and […]. The tissues were placed in an organ bath filled with 10 mL of Krebs-Henseleit solution and kept at 37 °C. Then 95% oxygen and 5% carbon dioxide were passed through the above-mentioned solution. To record organ responses to phenylephrine, (10^−6 M) (Sigma, St. Louis, MO, USA) simulated contractions; isometric transducers and Gemini recorders (Ugo Basile, Varese, Italy) were assembled. Aortic rings were recon traced with phenylephrine (10^−6 M) and subjected to acetylcholine (10^−6 M) for recording endothelium-dependent relaxations (EDR). All synthesized compounds along with the standard (valsartan) were mixed in DMSO; whereas synthesized derivatives of concentration 10^−4 M were added in an organ bath. In conscious rats, systolic blood pressure was recorded by applying the tail-cuff method. Wistar rats of 200 g to 250 g weight were selected and divided into groups of five individuals. The chemicals were injected intraperitoneally at a dosage of 80 mg/kg body weight. The tail-cuff and a piezoelectric pulse sensor were coupled to a blood pressure analyzer and were positioned at the base of the tail (May 9610, Ankara, Turkey).
(§3) All results were presented as the mean of SEM. (n = 5) and test compounds were employed for statistical significance determination.

[7] = system: conscious rats; assay: Antihypertensive effect, systolic blood pressure by tail-cuff method in conscious rats; format: in vivo, Wistar rats; conditions: 80 mg/kg intraperitoneally, n = 5, Control 108.28 ± 6.87, DMSO 81.10 ± 3.21
Protocol: as §2, §3

[8] = DPPH free radical scavenging assay; conditions: 1.0 mL sample 0.5 mg/mL + 2 mL DPPH 0.2 mg/mL, 30 min, 517 nm
Protocol: The DPPH assay was carried out to estimate the antioxidant potential among all the compounds [29]. Then, 2 mL (0.2 mg/mL in methyl alcohol) of DPPH was mixed with 1.0 mL (0.5 mg/mL in methyl alcohol) of the sample solution in a test tube. All the reaction tubes were covered with aluminum foil and kept aside for 30 min to complete the reaction. The activity was carried out in a dark room. […] A UV-visible spectrophotometer was employed to observe a reduction in the concentration of free radicals at 517 nm. The absorbance of the control (1.0 mL methanol + 2 mL DPPH solution) was also measured. All samples were evaluated in a triplicate manner, and the mean results were recorded. The standard antioxidant (ascorbic acid) was evaluated and set as a reference/standard. The percentage of inhibition (%) was calculated using the following formula in terms of scavenging activity(S):S (%) = [(Ab − Aa)/Ab] × 100(1) where Ab = Absorbance of control; and Aa = Absorbance of the test sample

[9] = urease, pH 7.0, 37 °C, read-out: IC50 ± SEM

Sequence of urease (P07374 whole entry, looked up): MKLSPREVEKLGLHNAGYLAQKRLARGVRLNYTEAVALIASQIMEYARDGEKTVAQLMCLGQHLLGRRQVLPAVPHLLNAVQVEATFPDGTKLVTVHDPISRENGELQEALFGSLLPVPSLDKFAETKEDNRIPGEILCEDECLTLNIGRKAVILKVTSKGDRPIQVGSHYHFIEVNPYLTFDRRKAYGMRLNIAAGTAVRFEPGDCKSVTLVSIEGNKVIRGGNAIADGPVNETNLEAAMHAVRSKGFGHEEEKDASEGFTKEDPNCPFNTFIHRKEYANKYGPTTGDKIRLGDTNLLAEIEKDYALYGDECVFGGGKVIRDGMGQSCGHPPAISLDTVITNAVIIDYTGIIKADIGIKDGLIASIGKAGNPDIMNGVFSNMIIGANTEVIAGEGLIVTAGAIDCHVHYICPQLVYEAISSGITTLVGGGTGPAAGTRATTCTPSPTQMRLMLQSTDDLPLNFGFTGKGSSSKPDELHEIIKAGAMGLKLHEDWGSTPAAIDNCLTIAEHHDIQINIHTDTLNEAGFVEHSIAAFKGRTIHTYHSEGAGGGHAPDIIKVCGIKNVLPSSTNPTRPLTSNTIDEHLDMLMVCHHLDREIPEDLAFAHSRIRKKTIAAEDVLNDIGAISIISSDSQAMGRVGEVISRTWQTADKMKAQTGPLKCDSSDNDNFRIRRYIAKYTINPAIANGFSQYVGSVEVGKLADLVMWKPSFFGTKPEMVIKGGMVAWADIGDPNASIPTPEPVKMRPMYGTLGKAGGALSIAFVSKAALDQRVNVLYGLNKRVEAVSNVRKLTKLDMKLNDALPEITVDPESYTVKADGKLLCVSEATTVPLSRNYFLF

Compound | IC50 [1] [nM] | Zone of Inhibition Gram +ve Bacteria B.pumilus Mean ± SEM [2] [millimeters] | Zone of Inhibition Gram -Ve Bacteria P. aeruginosa Mean ± SEM [3] [millimeters] | Zone of Inhibition Gram -Ve Bacteria E. coli Mean ± SEM [4] [millimeters] | Zone of Inhibition Gram +ve Bacteria S. aureus Mean ± SEM [5] [millimeters] | inhibition at 100 µM [6] [%] | Mean of Systolic Blood Pressure ± SEM [7] | %Age Inhibition ± SEM [8] [%] | IC50 [1, 9] [nM] | %ge inh. of Phenylephrine Cont. (±SEM) [6] [%] | folds more urease inhibition than standard Thiourea [1] [folds]
CCCCC(=O)N(Cc1ccc(-c2ccccc2-c2nnn[nH]2)cc1)C(C(=O)Oc1ccc(N)cc1)C(C)C (stereo not shown) [AV4, 4-aminophenyl 2-(N-((2′-(2H-tetrazol-5yl) -[1,1′-biphenyl]-4yl)methyl)pentanamido)-3methyl butanoate] | 3190 ± 950 | 10.46 ± 0.67 | 10.31 ± 0.47 | 10.63 ± 0.40 | 10.16 ± 0.17 | 69.4 ± 5.4 | 79.56 ± 2.78 |  |  |  | 
CCCCC(=O)N(Cc1ccc(-c2ccccc2-c2nn[nH]n2)cc1)C(C(=O)Oc1cccc2ccccc12)C(C)C (stereo not shown) [AV9, naphthalen-1-yl 2-(N-((2′-(2H-tetrazol-5-yl)-[1,1′-biphenyl]-4 yl)methyl)pentanamido)-3methyl butanoate] |  | 12.76 ± 0.84 | 10.90 ± 0.40 | 09.73 ± 0.23 | 14.40 ± 0.37 |  |  | 83.8 ± 0.64 | 2260 ± 1040 | 68.3 ± 4.7 | 
NC(N)=S [Standard Thiourea, Thiourea, reference compound] |  |  |  |  |  |  |  |  | 4240 ± 130 |  | 
CCCCC(=O)N(Cc1ccc(-c2ccccc2-c2nn[nH]n2)cc1)C(C(=O)O)C(C)C (stereo not shown) [AV0, 2-(N-((2′-(2H-tetrazole-5-yl)-[1,1′-biphenyl]-4yl)-methyl)-pentanamido)-3-methyl butanoic acid, reference compound] | 3210 ± 950 | 11.36 ± 0.49 | 12.43 ± 0.67 | 10.40 ± 0.69 | 12.13 ± 0.72 | 65.3 ± 3.6 | 82.41 ± 4.32 | 64.6± 0.50 |  |  | 
CO/N=C(\C(=O)N[C@@H]1C(=O)N2C(C(=O)O)=C(CSc3nc(=O)c(=O)[nH]n3C)CS[C@H]12)c1csc(N)n1 [Ceftriaxone, ceftriaxone sodium, reference compound] |  | 22.13 ± 0.14 | 23.33 ± 0.43 | 21.90 ± 0.18 | 24.60 ± 0.51 |  |  |  |  |  | 
CCCCC(=O)N(Cc1ccc(-c2ccccc2-c2nn[nH]n2)cc1)C(C(=O)Oc1ccccc1C(=O)O)C(C)C (stereo not shown) [AV11, 2-((2-(N-((2′-(2H-tetrazole-5-yl)-[1,1′-biphenyl]-4yl)methyl)pentanamido)-3-methylbutanoyl)oxy) benzoic acid] | 2190 ± 170 | 10.66 ± 0.52 | 11.46 ± 0.53 | 10.01 ± 0.55 | 12.53 ± 0.68 | 70.8 ± 7.7 | 72.71 ± 3.21 | 95.6 ± 0.54 |  |  | 
CCCCC(=O)N(Cc1ccc(-c2ccccc2-c2nn[nH]n2)cc1)C(C(=O)Oc1cc(C)ccc1C(C)C)C(C)C (stereo not shown) [AV8, 2-isopropyl-5-methylphenyl 2-(N-((2′-(2H-tetrazol-5yl)-[1, 1′-biphenyl]-4 yl)methyl)pentanamido)-3methyl butanoate] |  | 12.6 ± 0.60 | 12.23 ± 0.27 | 11.21 ± 0.41 | 12.66 ± 1.06 |  | 71.56 ± 4.32 | 95.3 ± 0.55 |  | 71.6 ± 6.5 | 3
CCCCC(=O)N(Cc1ccc(-c2ccccc2-c2nn[nH]n2)cc1)C(C(=O)Oc1ccc(C=O)cc1OC)C(C)C (stereo not shown) [AV2, 4-formyl-2-methoxyphenyl 2(N-((2′-(2H-tetrazole-5-yl)-[1,1′-biphenyl]-4yl)methyl)pentanamido)-3-methyl butanoate] |  | 12.26 ± 0.69 | 09.33 ± 0.58 | 11.90 ± 0.26 | 12.90 ± 0.81 |  |  | 96.0 ± 0.49 | 280 ± 150 | 76.4 ± 6.8 | 4
CCCCC(=O)N(Cc1ccc(-c2ccccc2-c2nn[nH]n2)cc1)C(C(=O)Oc1ccc(Cl)cc1Cl)C(C)C (stereo not shown) [AV5, 2,4-dichlorophenyl 2-(N-((2′-(2H-tetrazol-5yl)-[1,1′-biphenyl]-4 yl)methyl)pentanamido)-3methyl butanoate] |  | 11.23 ± 0.61 | 09.36 ± 0.85 | 11.36 ± 0.63 | 13.50 ± 0.50 |  | 81.92 ± 5.21 | 73.1 ± 0.49 | 1290 ± 120 | 66.2 ± 4.2 | 3
CCCCC(=O)N(Cc1ccc(-c2ccccc2-c2nn[nH]n2)cc1)C(C(=O)Oc1ccc(C=O)cc1)C(C)C (stereo not shown) [AV6, 4-formylphenyl2-(N-((2′-(2H-tetrazol-5-yl)-[1, 1′-biphenyl]-4yl)methyl)pentanamido)-3methyl butanoate] |  | 11.76 ± 1.06 | 10.73 ± 0.28 | 09.73 ± 0.44 | 12.86 ± 0.72 |  | 81.21 ± 3.21 | 76.3 ± 0.46 | 2130 ± 970 | 67.4 ± 5.1 | 
CCCCC(=O)N(Cc1ccc(-c2ccccc2-c2nn[nH]n2)cc1)C(C(=O)Oc1ccc(CC(N)C(=O)O)cc1)C(C)C (stereo not shown) [AV7, 3-(4-((2-(N-((2′-(2H-tetrazol-5yl)-[1,1′-biphenyl]-4 yl)methyl)pentanamido)-3methylbutanoyl)oxy)phenyl)-2amino-propanoic acid] | 8590 ± 1120 | 11.13 ± 0.80 | 10.76 ± 0.53 | 10.96 ± 0.18 | 12.10 ± 0.37 | 62.4 ± 2.7 | 85.61 ± 3.32 |  |  |  | 
O=C1O[C@H]([C@@H](O)CO)C(O)=C1O [Ascorbic acid, reference compound] |  |  |  |  |  |  |  | 96.4 ± 0.52 |  |  | 
